Laboratory results taken from article PMC10980656 (CNS Drugs, 2024).
Structures can show the parent of a compound that is named as a salt. Where two headings read alike, the source gives them in different places.

Legend:
healthy women and men = details: mild
clinical = details: both, human, in vivo; for AUC(0-t): AUC0–tz (geoMean); for Cmax: Cmax (geoMean), healthy subjects
[1] = repeated freeze/thaw cycles, short- (24 h) and long-term (30 day) storage; cited from earlier work
[2] = cited from earlier work
[3] = iv, 30 mg, plasma, single IV 30 mg fasudil over 30 min

Tmax (clinical; iv, 30 mg) [min] | AUC(0-t) (clinical; [3]) [ng·h/mL] | Cmax (clinical; [3]) [ng/mL] | Tmax (clinical; po, 30 mg) [min] | AUC0–tz LS mean ratio (oral/IV treatment) point estimate (90% CI) (both, human, in vivo) | AUC0–∞ LS mean ratio (oral/IV treatment) point estimate (90% CI) (both, human, in vivo) | hydroxyfasudil concentration after oral treatment compared with IV treatment (linear mixed-effect model of the full analysis set) [%] | Cmax LS mean ratio (oral/IV treatment) point estimate (90% CI) (linear mixed-effects model) | half-life (clinical; iv) [min] | AUC(0-inf) (clinical; iv, 30 mg, AUC0–∞ (geoMean), plasma, single IV 30 mg fasudil over 30 min) [ng·h/mL] | half-life (clinical; po, 30 mg) [min] | Structure (SMILES) | subjects with TEAE assessed as related to the IMP ("headache") (healthy women and men; IV treatment, one subject, recovered/resolved) [%] | treatment emergent adverse events (TEAEs), oral treatment (healthy women and men; oral fasudil, "fatigue", not related to the IMP) | sample stability (human plasma) [1] [%] | serum half-life ([2]; after IV administration of fasudil) [min] | exposure (AUC) ([2]; after IV applications (30 mg fasudil over 30 min)) [ng·h/mL] | exposure (AUC) ([2]; investigational oral solution, 40 mg fasudil hydrochloride) [ng·h/mL]
22.5 | 55.6 | 101 | 15 |  |  |  |  |  |  |  | O=S(=O)(c1cccc2cnccc12)N1CCCNCC1 [fasudil, fasudil hydrochloride, reference compound] | 7.1 | One TEAE |  |  |  | 
45 | 439 | 108 | 30 | 64.52 (60.32–69.01) % | 64.76 (60.11–69.78) % | 65 | 102.97 (89.53–118.43) % | 342 | 460 | 332 | O=S(=O)(c1cccc2c(O)nccc12)N1CCCNCC1 [hydroxyfasudil] |  |  | > 94 | 100 to 200 | 400 to 555 | 300
